The results in this text go back to patent publication US9233979B2, “Compounds that are ERK inhibitors” (Merck Sharp & Dohme Corp., priority 2012, dated 2016).

The structures appear in SMILES notation.

Chain of phosphorylated active hERK2 enzyme (P28482 whole entry): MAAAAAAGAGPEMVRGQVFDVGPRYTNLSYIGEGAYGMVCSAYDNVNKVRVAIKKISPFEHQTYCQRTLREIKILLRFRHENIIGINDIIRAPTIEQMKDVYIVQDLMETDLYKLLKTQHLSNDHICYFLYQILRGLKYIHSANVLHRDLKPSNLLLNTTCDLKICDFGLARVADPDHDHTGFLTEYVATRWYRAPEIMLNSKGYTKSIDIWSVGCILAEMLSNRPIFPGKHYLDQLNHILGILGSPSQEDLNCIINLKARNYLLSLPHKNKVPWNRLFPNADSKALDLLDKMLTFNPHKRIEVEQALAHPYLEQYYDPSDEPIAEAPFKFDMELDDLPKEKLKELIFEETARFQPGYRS

The target of the first assay is phosphorylated active hERK2 enzyme (Homo sapiens (Human), UniProt P28482). The assay is described as follows: Active Human ERK2 (hERK2) Activity Assay (IMAP-FP). The class given is biochemical. To be noted: Table 5, 0.5 nM hERK2, 30 μM ATP, 10 point titration, read-out: AERK2 IC50. On the procedure: Assays Active Human ERK2 (hERK2) Activity Assay:
Activated ERK2 activity was determined in an IMAP-FP assay (Molecular Devices). […] The final reaction in each well of 25 μL consists of 0.5 nM hERK2, 900 nM unlabeled peptide, 80 nM labeled-peptide, and 30 μM ATP. Phosphorylation reactions were allowed to proceed for 60 minutes and were immediately quenched by the addition of 60 μL IMAP detection beads (1:1000 dilutions) in IMAP binding buffer (Molecular Devices) with 24 mM NaCl. Plates were read on EnVision reader after 60 minutes binding equilibration using Fluorescence Polarization protocol (Perkin Elmer).
As a reminder, the IC50 is the midpoint of a concentration-inhibition curve. As for `COC1CN(c2n[nH]c3cc(NC(=O)N[C@H](C)c4ccccc4)ncc23)C1` [Example 22, 1-[3-(3-methoxyazetidin-1-yl)-1H-pyrazolo[4,3-c]pyridin-6-yl]-3-[(1R)-1-phenylethyl]urea], the half-inhibitory concentration (IC50) was found to be 8.75 nM. Same read-out and setting: for `COCCNC(=O)Nc1cc2[nH]nc(N3CCCC3)c2cn1` [Example 9, 1-(2-methoxyethyl)-3-(3-pyrrolidin-1-yl-1H-pyrazolo[4,3-c]pyridin-6-yl)urea] the value was 105 nM.

Still in this assay, the particulars now being: Table 6, 0.5 nM hERK2, 30 μM ATP, 10 point titration, read-out: AERK2 IC50.
Take `COC[C@@H](NC(=O)Nc1cc2[nH]nc(NCC3CCC3)c2cn1)c1ccccc1` [Example 156, 1-{3-[(cyclobutyl-methyl)amino]-1H-pyrazolo[4,3-c]-pyridin-6-yl}-3-[(1S)-2-methoxy-1-phenylethyl]urea]: the half-maximal inhibitory concentration (IC50) came out at 0.7 nM. Consider `CC(C)(O)[C@@H](NC(=O)Nc1cc2[nH]nc(NC(=O)N3CCC3)c2cn1)c1ccc(F)cc1` [Example 130, N-[6-({[(1S)-1-(4-fluorophenyl)-2-hydroxy-2-methylpropyl]-carbamoyl}amino)-1H-pyrazolo[4,3-c]pyridin-3-yl]-azetidine-1-carboxamide], for which the IC50 is 0.5 nM.

Consider `CCNc1n[nH]c2cc(NC(=O)N[C@H](CO)c3ccccc3)ncc12` [Example 67, 1-[3-(ethylamino)-1H-pyrazolo[4,3-c]pyridin-6-yl]-3-[(1S)-2-hydroxy-1-phenylethyl]urea], for which the IC50 amounted to 0.7 nM. Take `C[C@@H](NC(=O)Nc1cc2[nH]nc(NC(=O)C3CC3)c2cn1)c1ccccc1` [Example 317, (R)—N-(6-(3-(1-phenylethyl)ureido)-1H-pyrazolo[4,3-c]pyridin-3-yl)cyclopropanecarboxamide]: the IC50 amounted to 1 nM. As for `CC(C)N1CCc2nc(NC(=O)N[C@H](C)c3ccccc3)cc3[nH]nc1c23` [Example 142, (R)-1-(3-isopropyl-1,3,4,5-tetrahydropyrazolo[3,4,5-de][1,6]naphthyridin-7-yl)-3-(1-phenylethyl)urea], the IC50 was determined as 1.2 nM. For the molecule `COC(=O)Nc1n[nH]c2cc(NC(=O)N[C@H](C)c3ccc(Cl)c(C(F)(F)F)c3)ncc12` [Example 309, methyl {6-[({(1R)-1-[4-chloro-3-(trifluoromethyl)-phenyl]ethyl}-carbamoyl)amino]-1H-pyrazolo[4,3-c]pyridin-3-yl}-carbamate], the IC50 is 3.6 nM. Regarding `COC[C@@H](NC(=O)Nc1cc2[nH]nc(N3CCc4ncsc4C3)c2cn1)c1ccccc1` [Example 127, 1-[3-(6,7-dihydro[1,3]-thiazolo[5,4-c]-pyridin-5(4H)-yl)-1H-pyrazolo[4,3-c]pyridin-6-yl]-3-[(1S)-2-methoxy-1-phenylethyl]urea], the IC50 is 0.3 nM. With `COC[C@@H](NC(=O)Nc1cc2[nH]nc(N3CC4CCC(C3)O4)c2cn1)c1ccccc1` [Example 441, 1-[(1S)-2-methoxy-1-phenylethyl]-3-[3-(8-oxa-3-azabicyclo[3.2.1]-oct-3-yl)-1H-pyrazolo[4,3-c]-pyridin-6-yl]urea], the IC50 came to 0.9 nM. On to `COC[C@@H](NC(=O)Nc1cc2[nH]nc(N3CCC(OC)CC3)c2cn1)c1ccccc1` [Example 415, 1-[(1S)-2-methoxy-1-phenylethyl]-3-[3-(4-methoxypiperidin-1-yl)-1H-pyrazolo[4,3-c]pyridin-6-yl]urea], for which the IC50 amounted to 1 nM. As to `C[C@@H](NC(=O)Nc1cc2[nH]nc(Nc3ccc(F)nc3)c2cn1)c1ccccc1` [Example 382, 1-{3-[(6-fluoropyridin-3-yl)amino]-1H-pyrazolo[4,3-c]-pyridin-6-yl}-3-[(1R)-1-phenylethyl]urea], the IC50 was 72.1 nM. On to `COC[C@@H](NC(=O)Nc1cc2[nH]nc(NC3CC3)c2cn1)c1ccccc1` [Example 329, 1-[3-(cyclopropyl-amino)-1H-pyrazolo[4,3-c]-pyridin-6-yl]-3-[(1S)-2-methoxy-1-phenylethyl]urea], for which the IC50 came to 1 nM.

With `CCNc1n[nH]c2cc(NC(=O)NC(C)c3cc(C)ccn3)ncc12` (stereo not shown) [Example 281, 1-[3-(ethylamino)-1H-pyrazolo[4,3-c]pyridin-6-yl]-3-[1-(4-methyl-pyridin-2-yl)-ethyl]urea], the IC50 was 98.3 nM. Regarding `Nc1n[nH]c2c(Cl)c(NC(=O)N[C@H](COC(F)F)c3ccccc3)ncc12` [Example 363, 1-(3-amino-7-chloro-1H-pyrazolo[4,3-c]pyridin-6-yl)-3-[(1S)-2-(difluoromethoxy)-1-phenylethyl]urea], the IC50 was found to be 52.2 nM.

For `C[C@@H](NC(=O)Nc1cc2[nH]nc(N[C@H]3COC[C@H]3F)c2cn1)c1ccccc1` [Example 85, 1-(3-{[(3S,4S)-4-fluorotetrahydrofuran-3-yl]amino}-1H-pyrazolo[4,3-c]-pyridin-6-yl)-3-[(1R)-1-phenylethyl]urea], the half-maximal inhibitory concentration (IC50) was found to be 0.8 nM. Same read-out and setting: next, `COC(=O)Nc1n[nH]c2cc(NC(=O)N[C@@H]3CCOc4ccccc43)ncc12` [Example 295, methyl (6-{[(4R)-3,4-dihydro-2H-chromen-4-ylcarbamoyl]-amino}-1H-pyrazolo[4,3-c]-pyridin-3-yl)-carbamate]: 55 nM; `C=C(C)C1CC(CNc2n[nH]c3cc(NC(=O)N[C@H](C)c4ccccc4)ncc23)C1` (stereo partly drawn) [Example 180, 1-[3-({[3-(1-methylethenyl)-cyclobutyl]methyl}amino)-1H-pyrazolo[4,3-c]-pyridin-6-yl]-3-[(1R)-1-phenylethyl]urea]: 17.9 nM; `C[C@@H](NC(=O)Nc1cc2[nH]nc(NCC(=O)N(C)C)c2cn1)c1ccccc1` [Example 347, N,N-dimethyl-N~2~-[6-({[(1R)-1-phenylethyl]-carbamoyl}-amino)-1H-pyrazolo[4,3-c]-pyridin-3-yl]-glycinamide]: 18.3 nM. In the case of `Nc1n[nH]c2cc(NC(=O)N[C@H](CO)c3ccccc3)ncc12` [Example 375, 1-(3-amino-1H-pyrazolo[4,3-c]-pyridin-6-yl)-3-[(1S)-2-hydroxy-1-phenylethyl]urea], the IC50 is 2.5 nM. Regarding `C[C@@H](NC(=O)Nc1cc2[nH]nc(NC3CCOCC3)c2cn1)c1ccccc1` [Example 327, 1-[(1R)-1-phenylethyl]-3-[3-(tetrahydro-2H-pyran-4-ylamino)-1H-pyrazolo[4,3-c]pyridin-6-yl]urea], the IC50 is 1 nM.

As for `C[C@@H](NC(=O)Nc1cc2[nH]nc(NC(=O)N3CC(F)(F)C3)c2cn1)c1ccc(F)cc1` [Example 128, 3,3-difluoro-N-[6-({[(1R)-1-(4-fluorophenyl)ethyl]carbamoyl}amino)-1H-pyrazolo[4,3-c]pyridin-3-yl]-azetidine-1-carboxamide], the IC50 stood at 3.4 nM.

Regarding `C[C@@H](NC(=O)Nc1cc2[nH]nc(N3CCC(O)CC3)c2cn1)c1ccccc1` [Example 409, 1-[3-(4-hydroxypiperidin-1-yl)-1H-pyrazolo[4,3-c]-pyridin-6-yl]-3-[(1R)-1-phenylethyl]urea], the IC50 was 2.4 nM. On to `COC[C@@H](NC(=O)Nc1cc2[nH]nc(N)c2c(C)n1)c1ccccc1` [Example 335, 1-(3-amino-4-methyl-1H-pyrazolo[4,3-c]-pyridin-6-yl)-3-[(1S)-2-methoxy-1-phenylethyl]urea], for which the IC50 came out at 3 nM. Turning to `C[C@@H](NC(=O)Nc1cc2[nH]nc(NCC3CCOCC3)c2cn1)c1ccccc1` [Example 166, 1-[(1R)-1-phenylethyl]-3-{3-[(tetrahydro-2H-pyran-4-yl-methyl)amino]-1H-pyrazolo[4,3-c]pyridin-6-yl}urea], the IC50 came to 1.7 nM.
